From patent US20160274087A1, “SCREENING ASSAY FOR AGENTS THAT INFLUENCE BETA CELL NUMBER AND/OR PHENOTYPE” (VRIJE UNIVERSITEIT BRUSSEL, priority 2013, published 2016)

Assays:
[1] = target: T1, mineralocorticoid receptor (MR) (Homo sapiens, UniProt P08235); conditions: cited from earlier work
T1 sequence (P08235 1-984): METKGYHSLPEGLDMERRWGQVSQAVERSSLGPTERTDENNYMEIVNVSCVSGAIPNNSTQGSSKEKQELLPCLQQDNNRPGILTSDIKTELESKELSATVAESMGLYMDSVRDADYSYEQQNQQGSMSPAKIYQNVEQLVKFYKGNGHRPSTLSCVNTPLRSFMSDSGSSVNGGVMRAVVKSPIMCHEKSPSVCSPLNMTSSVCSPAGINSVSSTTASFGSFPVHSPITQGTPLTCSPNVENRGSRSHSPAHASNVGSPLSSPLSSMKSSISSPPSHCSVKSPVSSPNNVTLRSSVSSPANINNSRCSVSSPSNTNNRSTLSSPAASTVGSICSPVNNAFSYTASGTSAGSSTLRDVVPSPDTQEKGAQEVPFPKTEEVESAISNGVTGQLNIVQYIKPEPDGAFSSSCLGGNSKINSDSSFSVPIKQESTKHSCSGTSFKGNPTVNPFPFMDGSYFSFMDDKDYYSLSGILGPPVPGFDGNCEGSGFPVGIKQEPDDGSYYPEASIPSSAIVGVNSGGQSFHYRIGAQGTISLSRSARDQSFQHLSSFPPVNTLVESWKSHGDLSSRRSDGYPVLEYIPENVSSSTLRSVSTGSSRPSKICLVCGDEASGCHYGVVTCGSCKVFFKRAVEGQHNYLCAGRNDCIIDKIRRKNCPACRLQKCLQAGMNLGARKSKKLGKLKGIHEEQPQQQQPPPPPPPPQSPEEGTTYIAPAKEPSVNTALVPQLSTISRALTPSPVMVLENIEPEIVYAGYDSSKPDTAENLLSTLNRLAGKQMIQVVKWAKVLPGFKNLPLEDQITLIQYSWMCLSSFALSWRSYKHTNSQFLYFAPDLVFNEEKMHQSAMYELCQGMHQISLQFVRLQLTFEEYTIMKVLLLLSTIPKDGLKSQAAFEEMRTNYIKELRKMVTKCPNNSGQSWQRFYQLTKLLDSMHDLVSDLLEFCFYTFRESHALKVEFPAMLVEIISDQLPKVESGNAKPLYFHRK

rat beta cells [2] = assay: Beta cell DNA synthesis/proliferation by EdU (and BrdU) incorporation, incl. LOPAC screen; type: cell-based
Procedure, shortened: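 Sorted beta cells on 804G matrix were cultured at 37° C in Ham F10 with 50 μM IBMX and 10 mM glucose. In the LOPAC screen, compounds were added on day 1, with EdU (10 μM) from days 3–6. Imaged % EdU-positive cells defined hits at a Z-score above three SD.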

rat beta cells [3] = assay: Beta cell viability / cell death (propidium iodide assay); type: cell-based; conditions: LOPAC screen at 1 μM; adult rat beta cells; day 6; control medium 97
Source text: Numbers of living beta cells were obtained by subtracting the PI-positive cell numbers from the Ho-positive cell numbers, and correcting for the percent insulin-negative cells, as determined following insulin-immunofluorescence staining. They were expressed as percent of the numbers on day 1. […] To detect beta cells that underwent two successive cycles, cells were sequentially exposed to two different thymidine-analogs, first EdU from day 3 to 6, and then BrdU (100 μmol/l) from day 7 to 10, with a 24-hour label-free period in between. EdU-positive (EdU^+) nuclei were detected with the Click-iT Assay kit (Invitrogen), while BrdU-positive (BrdU^+) nuclei were identified with anti-BrdU antibody.
Absolute number of cells was determined by whole-well imaging using the BD-PathwayBioimager855 (BD-Biosciences). IPLab and AttoVision software packages (BD-Biosciences) were used for image background subtraction, segmentation and quantification.
Freshly purified beta cells were cultured in control medium for 24 h prior to the addition of the LOPAC test compounds (day 1). The culture medium was refreshed on day 3 and the cells were then cultured further with 5-ethynyl-2′-deoxyuridine (EdU; 10 μM) up to day 6. […] Thus, a compound is considered a hit only if it increases the percent EdU incorporation to above three standard deviation of the plate-averaged percent EdU incorporation.

C[C@]12CCC(=O)C=C1CC[C@@H]1[C@@H]2[C@@H](O)C[C@@]2(C)[C@H]1CC[C@]2(O)C(=O)CO [Hydrocortisone, hydrocortisone]
Relative Potencies MR [1]: 1
Percent EdU+ cells (rat beta cells [2]; LOPAC screen at 1 μM, adult rat beta cells, EdU day 3 to 6, control medium 5.6): 28.0%
Z-Score (rat beta cells [2]; LOPAC screen at 1 μM, adult rat beta cells, EdU day 3 to 6, hit cut-off three standard deviations): 5.4
final concentration of optimal potency (dose-response studies) (rat beta cells [2]; survival and proliferation of rat beta cells, data not shown): 1000 nM
Percent viable cells (rat beta cells [3]): 97%
